Source: US6277886A (priority 1996, dated 2001)
Where a name gives a salt, the structure may show the parent alone. Read-outs that look alike come from different tables or passages of the source.

Key:
MAO-A = MAO-A (Rattus norvegicus, UniProt P21396); assay: in vivo; conditions: for ED50: rat, read-out: IC-50 for Inhibition of MAO-A
Description: (§1) Rats (male Sprague-Dawley-derived) weighing 250±20 g were treated with one of the enantionmers or the racemic form of PAI by intraperitoneal injection (ip) or oral gavage (po), and decapitated 1h or 2h later respectively. Groups of three rates were used for each dose level of substance, and MAO activity determined in brain and liver using the general technique described in Example 19 of U.S. Pat. No. 5,387,612. The amount of protein in each incubation was determined using the Follin-Lowrymethod, and enzyme activity calculated as nmol of substrate metabolized per hour of incubation for each mg of protein. Activity of MAO in tissues from animals treated with the enantiomers or the racemic form of PAI was expressed as a percentage of the enzyme activity in a group of control animals administered vehicle (water for oral administration, 0.9% saline for ip injection).

MAO-B [1] = biological target: MAO-B (Rattus norvegicus, UniProt P19643); assay: in vivo; conditions: for activity for inhibition of MAO-B: in words; for ED50: rat
Description: as §1

ICR male mice = assay: Hypobaric hypoxia model, survival time of mice at 200 mmHg; format: in vivo; conditions: control = 100
Text: The model used is analogous to the one described by M. Nakanishi et al., Life Sci. 13: 467-476 (1973); and by Y'Oshiro et al., J. Med. Chem. 34: 2014-2023 (1991). A group of 4 ICR male mice each weighing 20-25 g were placed in a 2.5 L glass chamber (A) at atmospheric pressure. Chamber A is connected to a 12 L chamber (B) through a valve which is initially […] closed. The air in chamber B was evacuated to a pressure of 100 mmHg. The valve between the two chambers was opened rapidly, whereupon the pressure in chamber A fell within 14 seconds to 200 mmHg. The survival time of the mice in chamber A was determined to a maximum hypobaric exposure of 15 minutes. Effect of drug pretreatment on survival is calculated as the percent of the survivai time of the drug-treated group as compared to saline-injected or vehicle-injected group. Control groups were tested twice, before and after each experiment and consisted of 12 to 16 mice, 4 per group. Each tested group always consisted of 4 mice in order to ensure a constant residual volume of oxygen in all tests. […] The effect of each dose of the test drug was determined in duplicate, using a total of 8 mice, 4 per group. All drugs were administered i.p. one hour prior to hypoxia. Positive reference drugs were sodium pentobarbital at a dose of 40 mg/kg, or diazepam at a dose of 10 mg.kg, given 0.5 hour prior to hypoxia.

[2] = tested on: pressor response to catecholamines in the cat; assay: Pressor response to catecholamines in the anesthetized cat before and after S(-)PAI; format: in vivo; conditions: before S(-)PAI
Description: Cats were anesthetized with i.v. nembutal 25 mg/kg. Anesthesia was maintained by additional injections of nembutal, 5 mg/kg, as needed. The femoral artery was cannulated and connected to a Statham pressure transducer for blood pressure recordings on a Grass multichannel Polygraph. The femoral vein was cannulated for i.v. injection of drugs.

rat optic nerve = conditions: in words; cited from earlier work
MAO-A/MAO-B = conditions: in vitro; cited from earlier work
[3] = tested on: male Wistar rats after middle cerebral artery occlusion (MCA-O)
Text: In order to expose the left middle cerebral artery, a cut was made in the temporal muscle. The tip of the coronoid process of mandible was excised as well and removed with a fine rongeur. Craniectomy was made with a dental drill at the junction between the median wall and the roof of the inferotemporal fossa.
The dura matter was opened carefully using a 27 gauge needle. […] Following this, the temporalis muscle was sutured and laid over the craniectomy site. The skin was closed with a running 3-0 silk suture. […] The volume of brain tissue incurring damage following ischemia was determined.

rat cerebellum cells = conditions: in words; cited from earlier work
MAO-B [4] = conditions: in vitro; cited from earlier work
nerve cell death = conditions: sub-inhibitory levels; in words; cited from earlier work
[5] = tested on: noradrenaline depletion in rodents; conditions: in words; cited from earlier work
human subjects = conditions: cited from earlier work
[6] = tested on: reserpine induced ptosis in rats; assay: Reserpine-induced ptosis in rats; format: in vivo; conditions: reserpine 5 mg/kg i.p., 0-4 scale, 4 = eyes completely open, saline 0.86
Text: Reserpine-induced ptosis and its reversal test. Reserpine causes depletion of catecholamine stores, especially norepinephrine. This effect in the live animal is manifested among other things, in ptosis. Drugs that can prevent or inhibit reserpine-induced ptosis act either directly as noradrenergic agonists, or indirectly by decreasing or preventing the metabolic elimination of endogenous norepinephrine. MAO inhibitors belong to the latter category.

noradrenaline uptake = conditions: in words; cited from earlier work
[7] = po liver, 2 h after oral gavage
[8] = 10 mg/kg i.p., one hour prior to hypoxia
[9] = 50 mg/kg i.p., one hour prior to hypoxia
[10] = 100 mg/kg i.p., one hour prior to hypoxia

MAO-A, sequence (P21396 whole entry): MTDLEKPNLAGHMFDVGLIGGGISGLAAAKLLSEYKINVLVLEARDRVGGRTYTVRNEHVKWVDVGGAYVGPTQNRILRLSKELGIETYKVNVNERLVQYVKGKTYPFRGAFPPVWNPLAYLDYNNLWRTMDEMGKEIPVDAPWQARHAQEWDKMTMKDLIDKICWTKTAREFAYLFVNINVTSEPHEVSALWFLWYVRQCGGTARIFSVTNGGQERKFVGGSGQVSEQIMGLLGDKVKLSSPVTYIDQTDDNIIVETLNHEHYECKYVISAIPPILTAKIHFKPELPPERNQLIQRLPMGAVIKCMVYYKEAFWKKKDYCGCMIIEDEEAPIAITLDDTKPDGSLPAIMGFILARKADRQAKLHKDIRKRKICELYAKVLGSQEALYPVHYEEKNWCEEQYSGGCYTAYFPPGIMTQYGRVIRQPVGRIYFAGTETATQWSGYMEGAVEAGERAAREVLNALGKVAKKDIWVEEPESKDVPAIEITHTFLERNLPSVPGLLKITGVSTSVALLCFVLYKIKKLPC
MAO-B (Rattus norvegicus, UniProt P19643), sequence (P19643 whole entry): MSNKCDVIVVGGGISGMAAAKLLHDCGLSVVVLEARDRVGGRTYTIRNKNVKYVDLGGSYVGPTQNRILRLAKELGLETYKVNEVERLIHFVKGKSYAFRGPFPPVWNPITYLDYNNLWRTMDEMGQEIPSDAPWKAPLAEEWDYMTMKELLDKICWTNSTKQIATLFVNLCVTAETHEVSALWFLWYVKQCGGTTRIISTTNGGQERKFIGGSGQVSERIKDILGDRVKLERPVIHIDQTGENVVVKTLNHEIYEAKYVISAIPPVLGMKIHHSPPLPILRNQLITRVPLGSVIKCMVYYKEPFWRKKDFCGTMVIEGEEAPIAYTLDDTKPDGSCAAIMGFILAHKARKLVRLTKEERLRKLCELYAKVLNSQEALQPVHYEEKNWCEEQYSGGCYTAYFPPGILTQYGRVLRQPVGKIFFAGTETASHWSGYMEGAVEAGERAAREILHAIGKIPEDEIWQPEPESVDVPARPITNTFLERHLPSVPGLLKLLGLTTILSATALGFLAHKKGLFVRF

Question: Which results are given for `C#CCN[C@@H]1CCc2ccccc21` [R(+)PAI mesylate, reference compound]?
Answer: IC-50 for Inhibition of MAO-A (MAO-A; [7]): > 5 mg/kg; ED50 (MAO-A; po, 2 h): > 5 mg/kg; activity for inhibition of MAO-B (MAO-B [1]): selectivity; % protection ± SD relative to control (relative survival time) (ICR male mice; [8]): 116 ± 47%; % protection ± SD relative to control (relative survival time) (ICR male mice; [9]): 410 ± 151%; % protection ± SD relative to control (relative survival time) (ICR male mice; [10]): 358 ± 179%

Question: With `CNC[C@H](O)c1cccc(O)c1` [phenylephrine, reference compound] as the compound, how does the “Δ mean arterial pressure before S(-)PAI” value ([2]; 0.20 μg/kg i.v.) read?
Answer: 9 mmHg

Question: And the “Δ mean arterial pressure before S(-)PAI” value ([2]; 0.50 μg/kg i.v.)?
Answer: 17 mmHg

Question: What about the “Δ mean arterial pressure before S(-)PAI” value ([2]; 1.0 μg/kg i.v.) of the same compound?
Answer: 21 mmHg

Question: What about the “Δ mean arterial pressure before S(-)PAI” value ([2]; 2.0 μg/kg i.v.) of the same compound?
Answer: 40 mmHg

Question: For `NCCc1ccc(O)cc1` [tyramine, reference compound], which “Δ mean arterial pressure before S(-)PAI” value ([2]; 2.0 μg/kg i.v.) is on record?
Answer: 11 mmHg

Question: And the “Δ mean arterial pressure before S(-)PAI” value ([2]; 5.0 μg/kg i.v.)?
Answer: 19 mmHg

Question: What about the “Δ mean arterial pressure before S(-)PAI” value ([2]; 10.0 μg/kg i.v.) of the same compound?
Answer: 26 mmHg

Question: What about the “Δ mean arterial pressure before S(-)PAI” value ([2]; 20.0 μg/kg i.v.) of the same compound?
Answer: 42 mmHg

Question: For `NC[C@H](O)c1ccc(O)c(O)c1` [norepinephrine, reference compound], which “Δ mean arterial pressure before S(-)PAI” value ([2]; 0.02 μg/kg i.v.) is on record?
Answer: 8 mmHg

Question: And the “Δ mean arterial pressure before S(-)PAI” value ([2]; 0.05 μg/kg i.v.)?
Answer: 23 mmHg

Question: What about the “Δ mean arterial pressure before S(-)PAI” value ([2]; 0.10 μg/kg i.v.) of the same compound?
Answer: 31 mmHg

Question: And the “Δ mean arterial pressure before S(-)PAI” value ([2]; 0.20 μg/kg i.v.)?
Answer: 46 mmHg

Question: With `C#CCN[C@@H]1CCc2ccccc21` [R(+)PAI, R(+) enantiomer of N-propargyl-1-aminoindan] as the compound, how does the “slowing neuronal degeneration after crushing the rat optic nerve” value (rat optic nerve) read?
Answer: slowing neuronal degeneration

Question: What about the “selectivity for MAO-B than MAO-A” value (MAO-A/MAO-B) of the same compound?
Answer: more than 29 times more selective

Question: And the “improvement in neurological score severity” value [3]?
Answer: ~20%

Question: What about the “prevention of NMDA induced cell death” value (rat cerebellum cells) of the same compound?
Answer: active as a "neuroprotective agent"

Question: And the “activity as inhibitor of MAO-B relative to S(-)PAI” value (MAO-B [4])?
Answer: ~7,000 times more active

Question: Which “prevention of nerve cell death” value (nerve cell death) does the source give for `C#CCN(C)[C@H](C)Cc1ccccc1` [R(-)Deprenyl] here?
Answer: prevent nerve cell death

Question: And the “neuroprotective activity (percent restoration of noradrenaline after DSP-4)” value [5]?
Answer: displayed "neuroprotective activity"

Question: What about the “dose at which cardiovascular function could be compromised” value (human subjects; human subjects, daily dose, recommended dose 10 mg) of the same compound?
Answer: 30 to 40 mg

Question: And the “safety factor in clinical practice” value (human subjects; human)?
Answer: 3 to 4

Question: What about the “Mean score of reserpine-induced ptosis” value ([6]; 5 mg/kg i.p.) of the same compound?
Answer: 1.3

Question: What about the “Mean score of reserpine-induced ptosis” value ([6]; 10 mg/kg i.p.) of the same compound?
Answer: 3.16

Question: For `C#CCN[C@H]1CCc2ccccc21` [S(-)PAI mesylate, S-(-)-N-Propargyl-1-aminoindan mesylate], which “activity for inhibition of MAO-A” value (MAO-A; in words) is on record?
Answer: extremely low activity

Question: And the “IC-50 for Inhibition of MAO-A” value (MAO-A; ip liver, 1 h after ip injection)?
Answer: > 10 mg/kg

Question: What about the “IC-50 for Inhibition of MAO-A” value (MAO-A; [7]) of the same compound?
Answer: > 10 mg/kg

Question: What about the ED50 (MAO-A; ip, 1 h) of the same compound?
Answer: > 10 mg/kg

Question: What about the ED50 (MAO-A; po, 2 h) of the same compound?
Answer: > 10 mg/kg

Question: And the “activity for inhibition of MAO-B” value (MAO-B [1])?
Answer: extremely low activity

Question: And the ED50 (MAO-B [1]; ip, 1 h, read-out: IC-50 for Inhibition of MAO-B, ip brain, 1 h after ip injection)?
Answer: > 10 mg/kg

Question: What about the ED50 (MAO-B [1]; ip, 1 h, read-out: IC-50 for Inhibition of MAO-B, ip liver, 1 h after ip injection) of the same compound?
Answer: > 10 mg/kg

Question: What about the ED50 (MAO-B [1]; po, 2 h, read-out: IC-50 for Inhibition of MAO-B, po brain, 2 h after oral gavage) of the same compound?
Answer: > 10 mg/kg

Question: And the ED50 (MAO-B [1]; po, 2 h, read-out: IC-50 for Inhibition of MAO-B, po liver, 2 h after oral gavage)?
Answer: > 10 mg/kg

Question: What about the “% protection ± SD relative to control (relative survival time)” value (from here on “% protection ± SD relative to control”) (ICR male mice; [8]) of the same compound?
Answer: 84 ± 47%

Question: And the “% protection ± SD relative to control” value (ICR male mice; [9])?
Answer: 406 ± 247%

Question: What about the “% protection ± SD relative to control” value (ICR male mice; [10]) of the same compound?
Answer: 390 ± 197%

Question: With `CN1C(=O)CN=C(c2ccccc2)c2cc(Cl)ccc21` [Diazepam] as the compound, how does the “% protection ± SD relative to control” value (ICR male mice; 10 mg/kg i.p., 0.5 hour prior to hypoxia) read?
Answer: 430 ± 59%

Question: Which “neuroprotective activity (percent restoration of noradrenaline after DSP-4)” value [5] does the source give for `C#CCN(C)[C@@H](C)Cc1ccccc1` [S(+) deprenyl] here?
Answer: far lower "neuroprotective activity" in comparison with R(-) deprenyl

Question: What about the “noradrenaline uptake inhibition compared to R(-) deprenyl” value (noradrenaline uptake) of the same compound?
Answer: superior noradrenaline uptake inhibitor as compared to R(-) deprenyl

Question: Which “% protection ± SD relative to control” value (ICR male mice; 20 mg/kg i.p., 0.5 hour prior to hypoxia) does the source give for `CCCC(C)C1(CC)C(=O)NC(=O)NC1=O` (stereo not shown) [Pentobarbital] here?
Answer: 325 ± 166%
